Assay results reported in ChEMBL document CHEMBL4610120, “New Broad-Spectrum Antibiotics Containing a Pyrrolobenzodiazepine Ring with Activity against Multidrug-Resistant Gram-Negative Bacteria” (J Med Chem, 2020).
Values after ≈ are worked out from the molar mass of the structure shown.

Assays:
Acinetobacter baumannii [1] = assay: Antimicrobial activity against Acinetobacter baumannii ATCC 17978 by microdilution broth method; type: functional
Acinetobacter baumannii [2] = assay: Antimicrobial activity against multidrug-resistant Acinetobacter baumannii AYE by microdilution broth method; type: functional
Klebsiella pneumoniae [3] = assay: Antimicrobial activity against Klebsiella pneumoniae M6 by microdilution broth method; type: functional
Klebsiella pneumoniae [4] = assay: Antimicrobial activity against multidrug-resistant Klebsiella pneumoniae NCTC 13368 by microdilution broth method; type: functional
Pseudomonas aeruginosa [5] = assay: Antimicrobial activity against Pseudomonas aeruginosa PAO1 by microdilution broth method; type: functional
Pseudomonas aeruginosa [6] = assay: Antimicrobial activity against multidrug-resistant Pseudomonas aeruginosa NCTC 13437 by microdilution broth method; type: functional
Enterococcus faecium = assay: Antibacterial activity against vancomycin resistant Enterococcus faecium NCTC 12204 by microdilution broth method; type: functional
Enterococcus faecalis [7] = assay: Antibacterial activity against vancomycin resistant Enterococcus faecalis NCTC 12201 by microdilution broth method; type: functional
Enterococcus faecalis [8] = assay: Antibacterial activity against vancomycin sensitive Enterococcus faecalis NCTC 775 by microdilution broth method; type: functional
Staphylococcus aureus [9] = assay: Antibacterial activity against methicillin resistant Staphylococcus aureus NCTC 13616 by microdilution broth method; type: functional
Staphylococcus aureus [10] = assay: Antibacterial activity against methicillin resistant Staphylococcus aureus NCTC 13277 by microdilution broth method; type: functional
Staphylococcus aureus [11] = assay: Antibacterial activity against methicillin sensitive Staphylococcus aureus NCTC 6571 by microdilution broth method; type: functional
DNA [12] = assay: Stabilization of 5'-FAM-TAT-ATA-TAG-ATA-TTT-TTT-TAT-CTA-TAT-ATA-3'-TAMRA DNA (unknown origin) assessed as reduction in change in melting temperature at 1:1 to 5:1 ligand to DNA ratio measured after 3 hrs by FRET-based assay relative to control; type: ADME, nucleic-acid assay
DNA [13] = assay: Stabilization of 5'-FAM-TAT-AGA-TAT-AGA-TAT-TTT-ATA-TCT-ATA-TCT-ATA-3'-TAMRA DNA (unknown origin) assessed as reduction in change in melting temperature at 1:1 to 5:1 ligand to DNA ratio measured after 3 hrs by FRET-based assay relative to control; type: ADME, nucleic-acid assay
[14] = Cytotoxicity against human WI38 cells assessed as cell viability at 20 uM measured after 24 hrs by MTT assay relative to control; type: cell-based, WI-38; settings: read-out: Activity
[15] = Selectivity ratio of cytotoxicity against human WI38 cells to MIC for Acinetobacter baumannii ATCC 17978; type: toxicity, cell-based
[16] = Selectivity ratio of cytotoxicity against human WI38 cells to MIC for multidrug-resistant Acinetobacter baumannii AYE; type: toxicity, cell-based
[17] = Selectivity ratio of cytotoxicity against human WI38 cells to MIC for Klebsiella pneumoniae M6; type: toxicity, cell-based
[18] = Selectivity ratio of cytotoxicity against human WI38 cells to MIC for multidrug-resistant Klebsiella pneumoniae NCTC 13368; type: toxicity, cell-based
[19] = Selectivity ratio of cytotoxicity against human WI38 cells to MIC for Pseudomonas aeruginosa PAO1; type: toxicity, cell-based
[20] = Selectivity ratio of cytotoxicity against human WI38 cells to MIC for multidrug-resistant Pseudomonas aeruginosa NCTC 13437; type: toxicity, cell-based
[21] = Selectivity ratio of cytotoxicity against human WI38 cells to MIC for vancomycin resistant Enterococcus faecium NCTC 12204; type: toxicity, cell-based
[22] = Selectivity ratio of cytotoxicity against human WI38 cells to MIC for vancomycin resistant Enterococcus faecalis NCTC 12201; type: toxicity, cell-based
[23] = Selectivity ratio of cytotoxicity against human WI38 cells to MIC for vancomycin sensitive Enterococcus faecalis NCTC 775; type: toxicity, cell-based
[24] = Selectivity ratio of cytotoxicity against human WI38 cells to MIC for methicillin resistant Staphylococcus aureus NCTC 13616; type: toxicity, cell-based
[25] = Selectivity ratio of cytotoxicity against human WI38 cells to MIC for methicillin resistant Staphylococcus aureus NCTC 13277; type: toxicity, cell-based
[26] = Selectivity ratio of cytotoxicity against human WI38 cells to MIC for methicillin sensitive Staphylococcus aureus NCTC 6571; type: toxicity, cell-based
Escherichia coli = assay: Antimicrobial activity against multidrug-resistant Escherichia coli NCTC 12923 assessed as mutation frequency at 4 times MIC measured after 48 hrs; type: functional
Acinetobacter baumannii [27] = assay: Antimicrobial activity against Acinetobacter baumannii ATCC 17978 assessed as mutation frequency at 4 times MIC measured after 48 hrs; type: functional
[28] = molecular target: T1, Protein RecA (Escherichia coli K-12) (UniProt P0A7G6); assay: Induction of Escherichia coli K12 MG1655 recA promotor measured at 30 mins interval for 20 hrs by fluorescence assay relative to control; settings: Escherichia coli str. K-12 substr. MG1655
T1 sequence (whole entry): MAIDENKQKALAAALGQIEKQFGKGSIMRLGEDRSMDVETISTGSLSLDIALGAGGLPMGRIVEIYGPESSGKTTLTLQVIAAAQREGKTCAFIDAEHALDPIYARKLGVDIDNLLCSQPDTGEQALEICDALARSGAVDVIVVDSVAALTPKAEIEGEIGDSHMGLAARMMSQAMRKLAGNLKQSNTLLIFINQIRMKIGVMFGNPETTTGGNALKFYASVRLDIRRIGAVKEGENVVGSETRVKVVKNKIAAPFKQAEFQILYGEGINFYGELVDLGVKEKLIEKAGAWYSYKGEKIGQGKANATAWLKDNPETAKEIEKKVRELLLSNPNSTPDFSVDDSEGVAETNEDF

[29] = molecular target: T2, LexA repressor (Escherichia coli) (UniProt P0A7C2); assay: Induction of Escherichia coli K12 MG1655 lexA promotor measured at 30 mins interval for 20 hrs by fluorescence assay relative to control; settings: Escherichia coli str. K-12 substr. MG1655
T2 sequence (whole entry): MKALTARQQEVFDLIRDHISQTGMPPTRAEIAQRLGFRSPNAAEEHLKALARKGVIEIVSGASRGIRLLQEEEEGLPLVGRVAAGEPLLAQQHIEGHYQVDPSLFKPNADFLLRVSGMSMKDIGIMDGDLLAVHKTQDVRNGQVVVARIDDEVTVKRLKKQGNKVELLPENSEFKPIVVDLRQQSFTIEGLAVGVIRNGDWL

[30] = molecular target: T3, DNA repair protein RecN (Escherichia coli) (UniProt P05824); assay: Induction of Escherichia coli K12 MG1655 recN promotor measured at 30 mins interval for 20 hrs by fluorescence assay relative to control; settings: Escherichia coli str. K-12 substr. MG1655
T3 sequence (whole entry): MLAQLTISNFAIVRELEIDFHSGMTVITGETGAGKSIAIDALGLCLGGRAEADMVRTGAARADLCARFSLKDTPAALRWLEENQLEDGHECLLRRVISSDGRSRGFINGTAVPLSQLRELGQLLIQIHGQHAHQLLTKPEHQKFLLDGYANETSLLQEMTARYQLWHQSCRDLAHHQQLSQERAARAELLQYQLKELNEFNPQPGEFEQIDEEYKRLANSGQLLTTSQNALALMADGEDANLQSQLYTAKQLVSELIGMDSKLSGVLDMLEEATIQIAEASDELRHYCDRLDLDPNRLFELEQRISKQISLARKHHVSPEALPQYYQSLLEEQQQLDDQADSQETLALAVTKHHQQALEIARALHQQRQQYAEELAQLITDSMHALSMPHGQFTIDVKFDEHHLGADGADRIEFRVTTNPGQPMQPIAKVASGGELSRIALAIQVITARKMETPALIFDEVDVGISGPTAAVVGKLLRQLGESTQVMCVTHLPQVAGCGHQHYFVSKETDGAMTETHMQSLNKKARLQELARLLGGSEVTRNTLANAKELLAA

[31] = molecular target: T4, Cell division inhibitor SulA (Escherichia coli K-12) (UniProt P0AFZ5); assay: Induction of Escherichia coli K12 MG1655 sulA promotor measured at 30 mins interval for 20 hrs by fluorescence assay relative to control; settings: Escherichia coli str. K-12 substr. MG1655
T4 sequence (whole entry): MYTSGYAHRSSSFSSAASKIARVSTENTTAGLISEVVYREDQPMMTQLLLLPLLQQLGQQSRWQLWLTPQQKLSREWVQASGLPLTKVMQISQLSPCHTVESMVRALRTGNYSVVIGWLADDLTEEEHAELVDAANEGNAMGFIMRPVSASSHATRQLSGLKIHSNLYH

Klebsiella pneumoniae [32] = assay: Antimicrobial activity against Klebsiella pneumoniae M6 assessed as mutation frequency at 4 times MIC measured after 48 hrs; type: functional
Klebsiella pneumoniae [33] = assay: Antibacterial activity against multidrug-resistant Klebsiella pneumoniae NCTC 13368 measured after 10 passages by microdilution broth method; type: functional

| Molecule | MIC (Acinetobacter baumannii [1]) | MIC (Acinetobacter baumannii [2]) | MIC (Klebsiella pneumoniae [3]) | MIC (Klebsiella pneumoniae [4]) | MIC (Pseudomonas aeruginosa [5]) | MIC (Pseudomonas aeruginosa [6]) | MIC (Enterococcus faecium) | MIC (Enterococcus faecalis [7]) | MIC (Enterococcus faecalis [8]) | MIC (Staphylococcus aureus [9]) | MIC (Staphylococcus aureus [10]) | MIC (Staphylococcus aureus [11]) | fold change (FC) (DNA [12]) | fold change (FC) (DNA [13]) | viability at 24 h, 20 µM [14] | selectivity ratio [15] | selectivity ratio [16] | selectivity ratio [17] | selectivity ratio [18] | selectivity ratio [19] | also measured |
| --- | --- | --- | --- | --- | --- | --- | --- | --- | --- | --- | --- | --- | --- | --- | --- | --- | --- | --- | --- | --- | --- |
| COc1cc2c(cc1OCCCC(=O)Nc1cc(C(=O)Nc3ccc4oc(C(=O)N(C)C)cc4c3)n(C)c1)N=C[C@@H]1CCCN1C2=O | 4 µg/mL (≈ 6.24 µM) | 4 µg/mL (≈ 6.24 µM) | 0.5 µg/mL (≈ 0.78 µM) | 16 µg/mL (≈ 25 µM) | 128 µg/mL (≈ 200 µM) | 64 µg/mL (≈ 99.9 µM) | ≤ 0.125 µg/mL | 0.5 µg/mL (≈ 0.78 µM) | ≤ 0.125 µg/mL | ≤ 0.125 µg/mL | ≤ 0.125 µg/mL | ≤ 0.125 µg/mL | 3 to 4 | 3 to 4 | > 85% | 10 | 10 | 10 | 10 | 10 | selectivity ratio [20]: 10; selectivity ratio [21]: 100; selectivity ratio [22]: 100; selectivity ratio [23]: 100; selectivity ratio [24]: 100; selectivity ratio [25]: 100; selectivity ratio [26]: 100 |
| O=C(O)c1cn(C2CC2)c2cc(N3CCNCC3)c(F)cc2c1=O [CIPROFLOXACIN] | – | – | – | – | – | – | – | – | – | – | – | – | – | – | – | – | – | – | – | – | Activity (Escherichia coli): 4.4 ×10⁻⁷ No_unit; Activity (Acinetobacter baumannii [27]): 8.4 ×10⁻⁷ No_unit; fold change (FC) [28]: 20 to 35; fold change (FC) [29]: 5 to 13; fold change (FC) [30]: 14 to 32; fold change (FC) [31]: 17 to 41; Activity (Klebsiella pneumoniae [32]): 8.9 ×10⁻⁷ No_unit |
| COLISTIN | – | – | – | – | – | – | – | – | – | – | – | – | – | – | – | – | – | – | – | – | MIC (Klebsiella pneumoniae [33]): 32 µg/mL |
| COc1cc2c(cc1OCCCC(=O)Nc1cc(C(=O)Nc3ccc(-c4cc(C(=O)N(C)C)n(C)c4)cc3)n(C)c1)N=C[C@@H]1CCCN1C2=O | 4 µg/mL (≈ 5.88 µM) | 4 µg/mL (≈ 5.88 µM) | 2 µg/mL (≈ 2.94 µM) | 8 µg/mL (≈ 11.8 µM) | 128 µg/mL (≈ 188 µM) | > 128 µg/mL | ≤ 0.125 µg/mL | ≤ 0.125 µg/mL | ≤ 0.125 µg/mL | ≤ 0.125 µg/mL | ≤ 0.125 µg/mL | ≤ 0.125 µg/mL | 3 to 4 | 3 to 4 | > 85% | 10 | 10 | 10 | 10 | 10 | selectivity ratio [20]: 10; selectivity ratio [21]: 100; selectivity ratio [22]: 100; selectivity ratio [23]: 100; selectivity ratio [24]: 100; selectivity ratio [25]: 100; selectivity ratio [26]: 100 |
| CCN(CC)C(=O)c1cc(-c2ccc(NC(=O)c3cc(NC(=O)CCCOc4cc5c(cc4OC)C(=O)N4CCC[C@H]4C=N5)cn3C)cc2)cn1C | 64 µg/mL (≈ 90.4 µM) | 32 µg/mL (≈ 45.2 µM) | > 128 µg/mL | > 128 µg/mL | > 128 µg/mL | > 128 µg/mL | 0.25 µg/mL (≈ 0.353 µM) | 0.25 to 0.5 µg/mL (≈ 0.353 to 0.706 µM) | 0.5 µg/mL (≈ 0.706 µM) | 1 µg/mL (≈ 1.41 µM) | 1 µg/mL (≈ 1.41 µM) | 0.25 to 0.5 µg/mL (≈ 0.353 to 0.706 µM) | 3 to 4 | 3 to 4 | > 85% | 10 | 10 | 10 | 10 | 10 | selectivity ratio [20]: 10; selectivity ratio [21]: 100; selectivity ratio [22]: 100; selectivity ratio [23]: 100; selectivity ratio [24]: 100; selectivity ratio [25]: 100; selectivity ratio [26]: 100 |
